Laboratory results as given in ChEMBL document CHEMBL1201862, “PubChem BioAssay data set” (2004).
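All cell lines were grown in 96-well plates and treated with compound for 48 hours. GI50 = concentration required for 50% inhibition of growth.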 Calls of active or inactive are those of the source. Rule as the data show it: active = GI50 up to about 1.1 µM and inactive = higher.

Legend:
Experiment in all cases: NCI tumour cell line growth inhibition, 48 h
[1] = test system: CAKI-1
[2] = test system: HCC 2998
[3] = test system: HOP-92
[4] = test system: Malme-3M
[5] = test system: NCI-H460
[6] = test system: OVCAR-5
[7] = test system: OVCAR-8
[8] = test system: SF-268
[9] = test system: SK-MEL-28
[10] = test system: SN12C
[11] = test system: SNB-75
[12] = test system: SW-620
[13] = test system: TK-10
[14] = test system: UO-31
[15] = test system: 786-0
[16] = test system: A498
[17] = test system: HL-60
[18] = test system: U-251
[19] = test system: NCI-H226
[20] = test system: SF-295

Measured: GI50

CC(=O)OC1(C#N)CC2OC1C1C2N=NN1C(=O)OC(C)(C)C (stereo not given)
inactive: [1] > 100 µM | [2] 44.5 µM | [3] 27.5 µM | [4] 21.9 µM | [5] 32 µM | [6] 54.6 µM | [7] 34.6 µM | [8] 37.1 µM | [9] 28.8 µM | [10] 35.6 µM | [11] 31.8 µM | [12] 30.7 µM | [13] 20.4 µM | [14] 73.3 µM

Cc1nc2ccccc2c(=O)n1/N=C(\N=N\c1ccccc1Cl)c1ccccc1Cl
inactive: [15] 48 µM | [16] 43 µM | [1] 29.4 µM | [17] 27.9 µM | [3] 13 µM | [5] 73.5 µM | [7] > 100 µM | [8] 35.1 µM | [9] > 100 µM | [10] 38.8 µM | [12] > 100 µM | [13] 48 µM | [18] 48.5 µM | [14] 36.1 µM

COc1c(C(=O)/C(=N/Nc2cccc(Cl)c2)C(C)=O)c(O)c(OC)c2occc12
inactive: [15] > 100 µM | [1] > 100 µM | [2] 31.5 µM | [17] > 100 µM | [3] 67.1 µM | [4] 60.1 µM | [19] > 100 µM | [5] 65.8 µM | [6] > 100 µM | [7] 60.4 µM | [8] 87.3 µM | [20] 58.1 µM | [9] > 100 µM | [10] 61.2 µM | [11] 13 µM | [12] 76.4 µM | [13] > 100 µM | [18] > 100 µM | [14] 37.2 µM

CCOC(=O)Cn1nnc2cc(Nc3c(C)[n+]([O-])c4cc(F)c(OCC)cc4[n+]3[O-])ccc21
inactive: [15] 43.4 µM | [16] > 100 µM | [1] > 100 µM | [17] > 100 µM | [3] 13.6 µM | [19] > 100 µM | [5] > 100 µM | [6] > 100 µM | [7] > 100 µM | [8] 45.8 µM | [20] 38.3 µM | [9] > 100 µM | [12] > 100 µM | [13] 24.9 µM | [18] 32.5 µM | [14] > 100 µM

Cc1cc2oc(-c3ccccc3)c(C)c(=O)c2c2c1OC(C)(C)S2
inactive: [15] > 100 µM | [2] > 100 µM | [17] 8.13 µM | [3] 27.2 µM | [4] > 100 µM | [19] > 100 µM | [5] 92.7 µM | [6] > 100 µM | [7] > 100 µM | [8] > 100 µM | [20] > 100 µM | [9] 60.7 µM | [10] > 100 µM | [11] > 100 µM | [12] > 100 µM | [13] > 100 µM | [18] > 100 µM | [14] > 100 µM

COc1ccc(Nc2nc(C#N)c(N)s2)cc1
inactive: [15] 64 µM | [1] 24.6 µM | [2] > 10 µM | [17] 24.5 µM | [3] > 100 µM | [4] 91.2 µM | [19] > 100 µM | [5] > 100 µM | [6] > 100 µM | [7] 78.5 µM | [8] 19.9 µM | [20] 29.2 µM | [9] > 100 µM | [10] 30.7 µM | [11] > 100 µM | [12] 46.1 µM | [13] 38.2 µM | [18] 34.2 µM | [14] 40.8 µM

CCCCC[C@H]1CCCCCCCCCC(=O)OC2C(O[C@@H]3OC(C)[C@H](OC(=O)[C@@H](C)CC)C(O[C@@H]4OC(C)[C@H](O)C(O)[C@@H]4O)[C@@H]3OC(=O)[C@H](C)CC)[C@H](OC3C(O)[C@@H](O)C(C)O[C@H]3O1)OC(CO)[C@H]2O (stereo not given in full)
inactive: [15] 17.4 µM | [1] 17.3 µM | [2] 17.2 µM | [17] 19 µM | [3] 22.3 µM | [4] 15.3 µM | [5] 18.2 µM | [6] 16.7 µM | [7] 19.3 µM | [8] 16.3 µM | [20] 18 µM | [9] 16.1 µM | [10] 17.5 µM | [12] 16.5 µM | [13] 20.1 µM | [18] 17.9 µM | [14] 16.1 µM

C=C1C(=O)O[C@H]2C1C[C@H](O)[C@@]1(C)OC1CC[C@@]1(C)O[C@H]21 (stereo not given in full)
inactive: [15] 21 µM | [1] 17.7 µM | [2] 14.7 µM | [3] 20.6 µM | [4] 12 µM | [5] > 100 µM | [6] 16.9 µM | [7] 19 µM | [8] 43.2 µM | [20] > 100 µM | [9] 19.4 µM | [10] 17.4 µM | [11] 80.4 µM | [12] 13.6 µM | [13] 19.8 µM | [18] > 100 µM | [14] 17.1 µM

N#C/C(=C\c1cc(F)cc(F)c1)c1ccccn1
inactive: [15] > 10 µM | [1] 39.5 µM | [2] 21.1 µM | [17] > 10 µM | [3] 20.5 µM | [4] 25.9 µM | [19] 17.5 µM | [5] 22.7 µM | [6] 28.8 µM | [7] 16 µM | [8] 19.4 µM | [20] 16.3 µM | [9] 47 µM | [10] 24 µM | [11] 16.1 µM | [12] > 10 µM | [13] 30.8 µM | [18] 16.8 µM | [14] 34.7 µM

CCOC(=O)C(C(=O)OCC)P(=S)(S)c1ccccc1 (stereo not given)
inactive: [15] > 100 µM | [16] > 100 µM | [1] > 100 µM | [17] > 100 µM | [3] > 100 µM | [4] > 100 µM | [19] > 100 µM | [5] > 100 µM | [6] > 100 µM | [7] > 100 µM | [8] > 100 µM | [20] > 100 µM | [9] > 100 µM | [10] > 100 µM | [12] > 100 µM | [13] > 100 µM | [18] > 100 µM | [14] > 100 µM

NS(=O)(=O)c1ccc(-n2c(-c3cccs3)nc3ccc(I)cc3c2=O)cc1
inactive: [15] 28.7 µM | [1] 19.4 µM | [2] 22.1 µM | [17] 20.6 µM | [3] 18.5 µM | [4] 18.3 µM | [19] 27.4 µM | [5] 25.5 µM | [6] 24.6 µM | [7] 31.4 µM | [8] 28.2 µM | [20] 25.4 µM | [9] 17.3 µM | [10] 30.3 µM | [11] 37.7 µM | [12] 37.9 µM | [13] 25.4 µM | [18] 20 µM | [14] 20 µM
